Assay results: patent US8329919B2, “Salt hydrates” (Novartis AG, priority 2002, dated 2012)
Values joined by “and” are separate entries in the source; they are usually repeats but may differ in a detail not shown here. Identical values can stand only once.

Assay: Thermogravimetry: weight loss, i.e. water loss, as a function of temperature (thermobalance TGS-2)
Format: physicochemical
Settings: heating rate 10 K·min^−1, water-free N2 atmosphere
Description: Using thermogravimetry, in a water-free N2 atmosphere, the weight loss, i.e. the water loss for the tetrahydrate of the calcium salt of valsartan A1,Ca as a function of temperature, was measured at a heating rate of 10 K·min^−1. […]
Using thermogravimetry, in a water-free N2 atmosphere, the weight loss, i.e. the water loss for the trihydrate of the calcium salt of valsartan in the polymorphic form B1,Ca as a function of temperature, was measured at a heating rate of 10 K·min^−1.
(§1) Using thermogravimetry, in a water-free N2 atmosphere, the weight loss, i.e. the water loss for the trihydrate B2,Ca as a function of temperature, was measured at a heating rate of 10 K·min^−1. The results for the polymorph B2,Ca of the trihydrate of the calcium salt of valsartan are illustrated in table 4.
as §1, with “B3,Ca” for “B2,Ca”, “polymorphic form B3,Ca” for “polymorph B2,Ca”, “5.” for “4.”
Using thermogravimetry, in a water-free N2 atmosphere, the weight loss, i.e. the water loss for the di-(calcium salt of valsartan) pentahydrate D1,Ca as a function of temperature, was measured at a heating rate of 10 K·min^−1.
The instrument used for the calorimetric data is throughout a DSC Pyris 1 (Differential Scanning calorimeter) obtained from Perkin-Elmer Corp., Norwalk, Conn. USA. The measurements are performed with samples enclosed in a sealed gold specimen container with an internal free volume of ca. 22 microliters, with a sample weight of 2 to 4 mg and with a heating rate of Tr=10K·min^−1. […] The instrument used was a TGS-2 (Perkin-Elmer Corp., Norwalk, Conn. USA) and the measurement was performed in a water free atmosphere. The heating rate selected was 10 K·min^−1. The weight loss is illustrated in table 7.
The heating rate selected was 10K·min^−1.
Using thermogravimetry, in a water-free N2 atmosphere, the weight loss, i.e. the water loss for the tetrahydrate as a function of temperature, was measured at a heating rate of 10 K·min^−1. The results for the calcium salt of valsartan tetrahydrate A0,Ca are listed in the following: […]
Using thermogravimetry, in a water-free N2 atmosphere, the weight loss, i.e. the water loss for the tetrahydrate of the calcium salt of valsartan as a function of temperature, was measured at a heating rate of 10 K·min^−1.

weight loss or water loss in % (temperature 25 °C)	weight loss or water loss in % (temperature 50 °C)	weight loss or water loss in % (temperature 75 °C)	weight loss or water loss in % (temperature 100 °C)	weight loss or water loss in % (temperature 125 °C)	weight loss or water loss in % (temperature 150 °C)	weight loss or water loss in % (temperature 175 °C)	weight loss or water loss in % (temperature 200 °C)	weight loss or water loss in % (temperature 225 °C)	weight loss or water loss in % (temperature 250 °C)	weight loss or water loss in % (temperature 275 °C)	Molecule	also measured
0.0%	1.2%	4.2%	11.0%	16.7%	17.7%	18.3%	18.5%	18.7%	18.9%	19.3%	CCCCC(=O)N(Cc1ccc(-c2ccccc2-c2nnn[nH]2)cc1)[C@H](C(=O)O)C(C)C [A0,Mg, (S)—N-(1-carboxy-2-methyl-prop-1-yl)-N-pentanoyl-N-[2′-(1H-tetrazol-5-yl)-biphenyl-4-ylmethyl]-amine]	
0.1 ± 0.1% and 0%	1.0 ± 0.3% and 0.9%	6.8 ± 0.5% and 6.8%	14.1 ± 0.5% and 14.3%	15.6 ± 0.5% and 15.7%	16.4 ± 0.5% and 16.5%	16.9 ± 0.5% and 17.0%	17.1 ± 0.5% and 17.2%	17.3 ± 0.5% and 17.4%	17.6 ± 0.5% and 17.8%	18.3 ± 0.5% and 18.3%	CCCCC(=O)N(Cc1ccc(-c2ccccc2-c2nnn[nH]2)cc1)[C@H](C(=O)O)C(C)C [A1,Mg, (S)—N-(1-carboxy-2-methyl-prop-1-yl)-N-pentanoyl-N-[2′-(1H-tetrazol-5-yl)-biphenyl-4-ylmethyl]-amine]	
0 ± 0.3% and 0%	0.1 ± 0.3% and 0%	0.5 ± 0.5% and 0%	4.9 ± 0.5% and 4.7%	11.2 ± 0.5% and 11.1%	12.2 ± 0.5% and 11.9%	12.6 ± 0.5% and 12.3%	12.7 ± 0.5% and 12.5%	12.8 ± 0.5% and 12.6%	12.8 ± 0.5% and 12.7%	13.0 ± 0.5% and 13.3%	CCCCC(=O)N(Cc1ccc(-c2ccccc2-c2nnn[nH]2)cc1)[C@H](C(=O)O)C(C)C [A2,Ca, (S)—N-(1-carboxy-2-methyl-prop-1-yl)-N-pentanoyl-N-[2′-(1H-tetrazol-5-yl)-biphenyl-4-ylmethyl]-amine]	
0 ± 0.1%	2.1 ± 0.3%	6.5 ± 0.5%	9.5 ± 0.5%	11.1 ± 0.5%	12.0 ± 0.5%	12.5 ± 0.5%	12.8 ± 0.5%	13.0 ± 0.5%	13.6 ± 0.5%	14.3 ± 0.5%	CCCCC(=O)N(Cc1ccc(-c2ccccc2-c2nnn[nH]2)cc1)[C@H](C(=O)O)C(C)C [B1,Mg, (S)—N-(1-carboxy-2-methyl-prop-1-yl)-N-pentanoyl-N-[2′-(1H-tetrazol-5-yl)-biphenyl-4-ylmethyl]-amine]	
0.6%	3.0%	5.6%	7.1%	7.9%	8.3%	8.6%	8.6%	8.8%			CCCCC(=O)N(Cc1ccc(-c2ccccc2-c2nnn[nH]2)cc1)[C@H](C(=O)O)C(C)C [F1,Ca, (S)—N-(1-carboxy-2-methyl-prop-1-yl)-N-pentanoyl-N-[2′-(1H-tetrazol-5-yl)-biphenyl-4-ylmethyl]-amine]	

Molecule	weight loss or water loss in % (temperature 25 °C)	weight loss or water loss in % (temperature 50 °C)	weight loss or water loss in % (temperature 75 °C)	weight loss or water loss in % (temperature 100 °C)	weight loss or water loss in % (temperature 125 °C)	weight loss or water loss in % (temperature 150 °C)	weight loss or water loss in % (temperature 175 °C)	weight loss or water loss in % (temperature 200 °C)	weight loss or water loss in % (temperature 225 °C)	weight loss or water loss in % (temperature 250 °C)	weight loss or water loss in % (temperature 275 °C)	also measured
CCCCC(=O)N(Cc1ccc(-c2ccccc2-c2nn[n-]n2)cc1)[C@H](C(=O)[O-])C(C)C.CCCCC(=O)N(Cc1ccc(-c2ccccc2-c2nn[n-]n2)cc1)[C@H](C(=O)[O-])C(C)C.O.O.O.O.O.[Ca+2].[Ca+2] [D1,Ca, di-{calcium salt of (S)—N-(1-carboxy-2-methyl-prop-1-yl)-N-pentanoyl-N-[2′-(1H-tetrazol-5-yl)-biphenyl-4-ylmethyl]-amine}pentahydrate]	0.1 ± 0.1% and 0.1%	1.3 ± 0.3% and 1.7%	2.8 ± 0.5% and 3.3%	5.1 ± 0.5% and 5.1%	7.4 ± 0.5% and 7.1%	8.0 ± 0.5% and 7.7%	8.1 ± 0.5% and 7.9%	8.2 ± 0.5% and 8.0%	8.2 ± 0.5% and 8.1%	8.3 ± 0.5% and 8.3%	8.6 ± 0.5% and 8.6%	
(S)—N-(1-carboxy-2-methyl-prop-1-yl)-N-pentanoyl-N-[2′-(1H-tetrazol-5-yl)-biphenyl-4-ylmethyl]-amine calcium salt tetrahydrate [A0,Ca]	0%	0%	0.5%	3.5%	10.2%	12.4%	12.8%	12.9%	13.0%	13.3%	13.2%	
(S)—N-(1-carboxy-2-methyl-prop-1-yl)-N-pentanoyl-N-[2′-(1H-tetrazol-5-yl)-biphenyl-4-ylmethyl]-amine calcium salt tetrahydrate [A1,Ca]	1.1 ± 0.5% and 1.1%	3.3 ± 0.5% and 3.3%	5.1 ± 0.5% and 5.1%	9.6 ± 1.0% and 9.6%	12.2 ± 0.5% and 12.1%	12.9 ± 0.5% and 12.9%	13.2 ± 0.5% and 13.2%	13.3 ± 0.5% and 13.3%	13.4 ± 0.5% and 13.4%	13.3 ± 0.5% and 13.3%	13.7 ± 0.5% and 13.7%	
(S)—N-(1-carboxy-2-methyl-prop-1-yl)-N-pentanoyl-N-[2′-(1H-tetrazol-5-yl)-biphenyl-4-ylmethyl]-amine calcium salt trihydrate [B1,Ca]								9.7%				weight loss or water loss in % (temperature 25 °C, calcium salt trihydrate): 0.4 ± 0.3% and 0.5%; weight loss or water loss in % (temperature 50 °C, calcium salt trihydrate): 2.0 ± 0.5% and 2.0%; weight loss or water loss in % (temperature 75 °C, calcium salt trihydrate): 4.0 ± 0.5% and 3.9%; weight loss or water loss in % (temperature 100 °C, calcium salt trihydrate): 6.3 ± 0.5% and 5.7%; weight loss or water loss in % (temperature 125 °C, calcium salt trihydrate): 8.5 ± 0.5% and 8.1%; weight loss or water loss in % (temperature 150 °C, calcium salt trihydrate): 9.5 ± 0.5% and 9.2%; weight loss or water loss in % (temperature 175 °C, calcium salt trihydrate): 9.7 ± 0.5% and 9.5%; weight loss or water loss in % (temperature 200 °C, calcium salt trihydrate): 9.9 ± 0.5%; weight loss or water loss in % (temperature 225 °C, calcium salt trihydrate): 9.9 ± 0.5% and 9.7%; weight loss or water loss in % (temperature 250 °C, calcium salt trihydrate): 10.0 ± 0.5% and 9.9%; weight loss or water loss in % (temperature 275 °C, calcium salt trihydrate): 10.3 ± 0.5% and 10.2%
